# Data published in US20200407370A1, “PEPTIDYLARGININE DEIMINASE INHIBITOR AND USE THEREOF” (Nanjing Transthera Biosciences Co., Ltd., priority 2018, published 2020).
# Like-named read-outs stand apart in the source and are kept apart here.
# How the values were obtained:
# [1] = target: T1, Peptidylarginine deiminase 4 (PAD4) (Homo sapiens, UniProt Q9UM07); assay: Assay of enzyme-inhibiting activity (PAD4, FAM-AcH4(1-5) peptide, Caliper detection); assay type: biochemical; details: 10 nM PAD4, 5 μM peptide, 0.1 mM Ca2+, pH 8.0
# T1 construct: purchased Cayman 10500
# T1 sequence (Q9UM07 whole entry): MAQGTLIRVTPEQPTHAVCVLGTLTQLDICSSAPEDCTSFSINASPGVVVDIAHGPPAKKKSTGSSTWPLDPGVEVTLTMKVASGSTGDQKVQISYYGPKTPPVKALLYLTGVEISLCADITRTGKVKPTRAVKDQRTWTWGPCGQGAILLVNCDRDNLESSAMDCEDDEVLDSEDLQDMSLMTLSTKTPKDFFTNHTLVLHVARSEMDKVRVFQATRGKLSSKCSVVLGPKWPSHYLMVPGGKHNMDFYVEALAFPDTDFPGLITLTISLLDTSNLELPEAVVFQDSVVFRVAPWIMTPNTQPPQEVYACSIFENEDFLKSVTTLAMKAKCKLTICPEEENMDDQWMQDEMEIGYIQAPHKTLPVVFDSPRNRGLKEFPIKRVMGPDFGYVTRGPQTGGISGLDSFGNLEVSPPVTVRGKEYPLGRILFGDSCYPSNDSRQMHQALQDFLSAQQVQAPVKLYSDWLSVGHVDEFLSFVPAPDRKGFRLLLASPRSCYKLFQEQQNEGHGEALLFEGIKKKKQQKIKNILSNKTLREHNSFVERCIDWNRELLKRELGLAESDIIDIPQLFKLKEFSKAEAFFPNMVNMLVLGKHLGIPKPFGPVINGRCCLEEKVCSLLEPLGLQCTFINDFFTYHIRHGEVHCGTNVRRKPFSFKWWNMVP
# Description: Experimental Example 1: Assay of Enzyme-Inhibiting Activity of Compound
# Sample: The compound disclosed herein prepared according to exemplary methods.
# Peptidylarginine deiminase 4 (PAD4): Cayman, Cat. No. 10500, Lot. No. 0519694;
# Carboxyfluorescein-labeled peptide (Peptide FAM-AcH4 (1-5)): GL Biochem, Cat. No. 0200046, Lot. No. P161110-TL545976;
# An appropriate amount of the compound to be assayed was dissolved in DMSO to 10 mM. An appropriate amount of 10 mM mother liquor of the compound to be assayed was diluted to 1.5 mM with DMSO, and the solution was then serially diluted 3-fold with DMSO to give 50× concentrations of gradient compound solutions. Finally, 10-fold dilution was carried out with reaction buffer (an aqueous solution of 100 mM HEPES (2-[4-(2-hydroxyethyl)piperazin-1-yl]ethanesulfonic acid) containing 0.01% v/v Triton, pH 8.0) to give 5× concentrations of gradient compound solutions (150 μM, 50 μM, 16.667 μM, 5.556 μM, 1.852 μM, 0.617 μM, 0.206 μM, 0.069 μM, 0.023 μM, and 0.008 μM).
# 1) Reaction buffer: aqueous solution of 100 mM HEPES (2-[4-(2-hydroxyethyl)piperazin-1-yl]ethanesulfonic acid) containing 0.01% v/v Triton, pH 8.0;
# 2) Stop solution: aqueous solution of 100 mM HEPES (2-[4-(2-hydroxyethyl)piperazin-1-yl]ethanesulfonic acid) containing 0.015% w/v Brij-35, 0.2% v/v Coating Reagent (coating solution) #3 (PE, part no. 760050) and 50 mM EDTA, pH 8.0;
# 3) 2.5× enzyme solution: An appropriate amount of PAD4 was diluted to 2.5× (final concentration: 10 nM) with reaction buffer;
# 4) 2.5× polypeptide solution: An appropriate amount of carboxyfluorescein -labeled peptide (FAM-AcH4(1-5) peptide) and CaCl2) solution was diluted to 2.5× (the final concentration of polypeptide: 5 μM, the final concentration of Ca^2+: 0.1 mM) with reaction buffer.
# 5 μL of 5× compound solutions or solvents with different concentrations were added to a 384-well plate, 10 μL of 2.5× enzyme solution was then added, and the plate was incubated at room temperature for 10 min. 10 μL of 2.5× polypeptide solution was then added to each well, and the plate was incubated at 28° C. for a certain period of time. 25 μL of stop solution was added to stop reaction. Caliper was used for detection. The inhibition rate was calculated according to the following formula:
# Inhibition percentage=(max−transformation)/(max−min)*100.
# “max” denotes DMSO control; and “min” denotes low control.
# [2] = Liver microsomal stability in human; assay type: in vitro ADME; details: human liver microsomes, 0.5 mg protein/mL, 1 μM compound, 37° C.
# Description: (§1) Experimental Example 2: Evaluation on Liver Microsomal Stability of the Compound Disclosed Herein in Human/Canine
# (§2) An appropriate amount of the compound was precisely weighed and dissolved in DMSO to prepare a 5.0 mM stock solution. 5.0 mM stock solution was diluted to 1.0 mM with DMSO, and then diluted with water to 10 μM, serving as a compound working solution for later use (DMSO content in the reaction system: 0.1% v/v).
# (§3) • (1) The liver microsomes (20 mg protein/mL) were taken from a −80° C. refrigerator, pre-incubated on a 37° C. water bath thermostatic oscillator for 3 min, and thawed for use. • (2) A mixed incubation system solution (without compounds or β-NADPH) was prepared according to the proportion of “composition of the incubation system” described above and pre-incubated on a 37° C. water bath thermostatic oscillator for 2 min. • (3) Control group (without β-NADPH): 30 μL of water and 30 μL of compound working solution (10 μM) were added to 240 μL of the mixed incubation system solution in step (2), and the mixture was vortexed for 30 s and mixed. The total volume of the mixture was 300 μL. The sample was duplicated. The reaction solution was placed on a 37° C. water bath thermostatic oscillator for incubation, and timing was started. Samples were collected at 0 min and 60 min. • (4) Sample group: 70 μL of β-NADPH solution (10 mM) and 70 μL of compound working solution (10 μM) were added to 560 μL of the mixed incubation system solution in step (2), and the total volume of the mixture was 700 μL. The mixture was vortexed for 30 s and mixed. The sample was duplicated. The reaction solution was placed on a 37° C. water bath thermostatic oscillator for incubation, and timing was started. Samples were collected at 0 min, 5 min, 10 min, 20 min, 30 min and 60 min after timing. • (5) The reaction solution was vortexed for 3 min, and centrifuged at 12,000 rpm for 5 min. • (6) 50 μL of the supernatant was added to 150 μL of water, and the resulting solution was vortexed and mixed before LC/MS/MS analysis.
# (§4) The half-life (t1/2) and clearance (Cl) were calculated using the following first-order kinetic formula:
# (§5) Vd=1/protein content in liver microsomes
# (§6) Note: k denotes the slope of the logarithm of the remaining amount of a compound vs. time, Vd denotes apparent volume of distribution, C0 denotes drug concentration at 0 h, Ct denotes drug concentration at time t, t denotes time, e denotes natural number, and Clint denotes intrinsic clearance.
# [3] = Liver microsomal stability in canine; assay type: in vitro ADME; details: dog; canine liver microsomes, 0.5 mg protein/mL, 1 μM compound, 37° C.
# Description: as §1, §2, §3, §4, §5, §6
# [4] = Pharmacokinetics (PK) of the compound in rats; assay type: in vivo; details: rat, plasma, SD rats
# Description: Experimental Example 3: Pharmacokinetics (PK) of the Compound in Rats
# The test compound was dissolved in a mixture of 5% v/v DMSO+20% v/v (30% v/v solutol (polyethylene glycol-15 hydroxystearate purchased from BASF, batch no. 84773247G0))+75% v/v brine to prepare a solution, which was then administered to SD rats by oral gavage at a dose of 5.0 mg/kg. Blood samples were collected at 15 min, 30 min, 1 h, 2 h, 4 h, 6 h, 8 h and 24 h.
# The test compound was dissolved in a mixture of 5% v/v DMSO+20% v/v (30% v/v solutol)+75% v/v brine to prepare a solution, which was administered to SD rats by intravenous bolus at a dose of 1 mg/kg. Blood samples were collected at 5 min, 15 min, 30 min, 1 h, 2 h, 4 h, 6 h, 8 h and 24 h.
# The animals were fixed, with tails warmed in a water bath 10 min before each sampling time point. About 100 μL of blood was collected via the tail vein, and the blood samples were collected in anticoagulation tubes containing EDTA-K2. The blood samples were centrifuged at 8,000 rpm for 6 min at 4° C. to give plasma samples within 30 min after collection. The plasma samples were stored in a refrigerator at −80° C. before test.
# The sample was taken out from the −80° C. refrigerator, and vortexed for 5 min after naturally thawed at room temperature. 20 μL of plasma sample was pipetted into a 1.5 mL centrifuge tube, and 200 μL of 100 ng/mL internal standard working solution (a solution of tolbutamide in methanol) was added. The resulting mixture was mixed, vortexed for 5 min, and then centrifuged at 12,000 rpm for 5 min. 50 μL of the supernatant was pipetted into a 96-well plate with 150 μL of water per well, and the plate was vortexed for 5 min before LC-MS/MS analysis.
# The concentration was calculated by Analyst 1.6.3 from AB Sciex. Parameters such as mean, standard deviation and coefficient of variation (excluding those output directly by Analyst 1.6.3) were calculated by Microsoft Excel. PK parameters were calculated by Pharsight Phoenix 6.1 software NCA (Tmax was in median).
IC50 [1],Compound,half-life at 1 μM [2],microsomal CLint at 1 μM [2],half-life at 1 μM [3],"bioavailability ([4]; IV 1 mg/kg, PO 5 mg/kg, n = 3, read-out: F (absolute bioavailability))","AUC(0-t) ([4]; IV 1 mg/kg, n = 3, read-out: AUClast iv (area under concentration-time curve 0-24 h))","clearance ([4]; IV 1 mg/kg, n = 3, read-out: Cl_obs iv (clearance) (converted))","Vd ([4]; IV 1 mg/kg, n = 3, read-out: Vz_obs iv (apparent volume of distribution))","half-life ([4]; IV 1 mg/kg, n = 3, read-out: tz1/2 iv (terminal half-life) (converted))","Tmax ([4]; PO 5 mg/kg, n = 3, median, read-out: Tmax po (time to maximum plasma concentration))","AUC(0-t) ([4]; PO 5 mg/kg, n = 3, read-out: AUClast po (area under concentration-time curve 0-24 h))","half-life ([4]; PO 5 mg/kg, n = 3, read-out: tz1/2 po (terminal half-life) (converted))",microsomal CLint at 1 μM [3]
0.35 µM,"CCn1c(-c2nc3cc(C(=O)N4CCC[C@@H](N)C4)cc(OC)c3n2C)cc2ccoc21 [Compound 4, (R)-(3-aminopiperidin-1-yl)(2-(6-ethyl-6H-furo[2,3-b]pyrrol-5-yl)-7-methoxy-1-methyl-1H-benzo[d]imidazol-5-yl)methanone]",11.6 h,2 µL/min/mg,5.5 h,,,,,,,,,
0.054 µM,"COc1cc(C(=O)N2CCC[C@@H](N)C2)cc2nc(-c3cc4ccoc4n3CC3CC3)n(C)c12 [Compound 24, (R)-(3-aminopiperidin-1-yl)(2-(6-(cyclopropylmethyl)-6H-furo[2,3-b]pyrrol-5-yl)-7-methoxy-1-methyl-1H-benzo[d]imidazol-5-yl)methanone]",,,,,,,,,,,,

Compound,IC50 [1],half-life at 1 μM [2],microsomal CLint at 1 μM [2],half-life at 1 μM [3],"bioavailability ([4]; IV 1 mg/kg, PO 5 mg/kg, n = 3, read-out: F (absolute bioavailability))","AUC(0-t) ([4]; IV 1 mg/kg, n = 3, read-out: AUClast iv (area under concentration-time curve 0-24 h))","clearance ([4]; IV 1 mg/kg, n = 3, read-out: Cl_obs iv (clearance) (converted))","Vd ([4]; IV 1 mg/kg, n = 3, read-out: Vz_obs iv (apparent volume of distribution))","half-life ([4]; IV 1 mg/kg, n = 3, read-out: tz1/2 iv (terminal half-life) (converted))","Tmax ([4]; PO 5 mg/kg, n = 3, median, read-out: Tmax po (time to maximum plasma concentration))","AUC(0-t) ([4]; PO 5 mg/kg, n = 3, read-out: AUClast po (area under concentration-time curve 0-24 h))","half-life ([4]; PO 5 mg/kg, n = 3, read-out: tz1/2 po (terminal half-life) (converted))",microsomal CLint at 1 μM [3]
"CCn1c(-c2nc3cc(C(=O)N4CCC[C@@H](N)C4)cc(OC)c3n2C)cc2cccnc21 [Compound GSK199, reference compound]",0.14 µM,4.45 h,5.2 µL/min/mg,12.8 h,33.1%,330 ng·h/mL,48.2 mL/min/kg,6.75 L/kg,1.63 h,4 h,496 ng·h/mL,2.23 h,1.8 µL/min/mg
